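These data come from cells grown in 96-well plates and exposed to compound for 48 hours at five concentrations. GI50 marks 50% less growth. TGI is the concentration that stops growth completely.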
Legend:
Assay in all cases: NCI tumour cell line growth inhibition, 48 h
SK-OV-3 ovarian = system: SK-OV-3 ovarian
HCT-116 colon = system: HCT-116 colon
HCC-2998 colon = system: HCC-2998 colon
786-0 renal = system: 786-0 renal
SF-539 CNS = system: SF-539 CNS
SNB-75 CNS = system: SNB-75 CNS
M14 melanoma = system: M14 melanoma
SF-295 CNS = system: SF-295 CNS
OVCAR-5 ovarian = system: OVCAR-5 ovarian
UACC-62 melanoma = system: UACC-62 melanoma
DU-145 prostate = system: DU-145 prostate
COLO 205 colon = system: COLO 205 colon
RXF 393 renal = system: RXF 393 renal
ACHN renal = system: ACHN renal
MDA-MB-231 breast = system: MDA-MB-231 breast
NCI-H226 lung = system: NCI-H226 lung
SW-620 colon = system: SW-620 colon
NCI-H522 lung = system: NCI-H522 lung
TK-10 renal = system: TK-10 renal
CCRF-CEM leukemia = system: CCRF-CEM leukemia
MOLT-4 leukemia = system: MOLT-4 leukemia
SNB-19 CNS = system: SNB-19 CNS
OVCAR-3 ovarian = system: OVCAR-3 ovarian
SK-MEL-2 melanoma = system: SK-MEL-2 melanoma
NCI-H460 lung = system: NCI-H460 lung
A549 NSCLC = system: A549 NSCLC
UO-31 renal = system: UO-31 renal
MCF7 breast = system: MCF7 breast
HOP-62 NSCLC = system: HOP-62 NSCLC
EKVX NSCLC = system: EKVX NSCLC
SR leukemia = system: SR leukemia
UACC-257 melanoma = system: UACC-257 melanoma
SN12C renal = system: SN12C renal
HOP-92 NSCLC = system: HOP-92 NSCLC
OVCAR-8 ovarian = system: OVCAR-8 ovarian
IGROV1 ovarian = system: IGROV1 ovarian
NCI/ADR-RES ovarian = system: NCI/ADR-RES ovarian
PC-3 prostate = system: PC-3 prostate
MDA-MB-435 = system: MDA-MB-435
OVCAR-4 ovarian = system: OVCAR-4 ovarian
A498 renal = system: A498 renal
BT-549 breast = system: BT-549 breast
MALME-3M melanoma = system: MALME-3M melanoma
RPMI-8226 leukemia = system: RPMI-8226 leukemia
CAKI-1 renal = system: CAKI-1 renal
KM12 colon = system: KM12 colon
HCT-15 colon = system: HCT-15 colon
SK-MEL-28 melanoma = system: SK-MEL-28 melanoma
HS 578T breast = system: HS 578T breast
HT29 colon = system: HT29 colon
SF-268 CNS = system: SF-268 CNS
LOX IMVI melanoma = system: LOX IMVI melanoma
T-47D breast = system: T-47D breast
U251 CNS = system: U251 CNS
NCI-H23 lung = system: NCI-H23 lung
HL-60(TB) leukemia = system: HL-60(TB) leukemia
SK-MEL-5 melanoma = system: SK-MEL-5 melanoma

For `Cn1c(I)c(C#C[Si](C)(C)C)c(=O)n(C(=O)c2ccccc2)c1=O`, the GI50 (SK-OV-3 ovarian) was 0.529 µM, the TGI (SK-OV-3 ovarian) was 21.7 µM and the GI50 (HCT-116 colon) was 1.74 µM. It also gave a TGI (HCT-116 colon) of 3.44 µM, a GI50 (HCC-2998 colon) of 6.78 µM and a TGI (HCC-2998 colon) of 21.6 µM. For the same molecule, the GI50 (786-0 renal) was 3.49 µM, the TGI (786-0 renal) was 11.7 µM and the GI50 (SF-539 CNS) was 5.3 µM. It also gave a TGI (SF-539 CNS) of 12.1 µM, a GI50 (SNB-75 CNS) of 4.2 µM and a TGI (SNB-75 CNS) of 20.5 µM. For the same molecule, the GI50 (M14 melanoma) was 1.99 µM, the TGI (M14 melanoma) was 4.16 µM and the GI50 (SF-295 CNS) was 21.5 µM. It also gave a TGI (SF-295 CNS) of 48.7 µM, a GI50 (OVCAR-5 ovarian) of 14.3 µM and a TGI (OVCAR-5 ovarian) of 28.5 µM. For the same molecule, the GI50 (UACC-62 melanoma) was 4.51 µM, the TGI (UACC-62 melanoma) was 17 µM and the GI50 (DU-145 prostate) was 1.95 µM. The TGI (DU-145 prostate) was 3.78 µM, the GI50 (COLO 205 colon) was 1.55 µM and the TGI (COLO 205 colon) was 3.2 µM. It also gave a GI50 (RXF 393 renal) of 1.64 µM, a TGI (RXF 393 renal) of 3.14 µM and a GI50 (ACHN renal) of 2.9 µM. The TGI (ACHN renal) was 7.83 µM, the GI50 (MDA-MB-231 breast) was 5.22 µM and the TGI (MDA-MB-231 breast) was 11.8 µM. The GI50 (NCI-H226 lung) was 7.44 µM, the TGI (NCI-H226 lung) was 21.7 µM and the GI50 (SW-620 colon) was 2.01 µM. The TGI (SW-620 colon) was 4.27 µM, the GI50 (NCI-H522 lung) was 4.19 µM and the TGI (NCI-H522 lung) was 8.99 µM. It also gave a GI50 (TK-10 renal) of 3.81 µM, a TGI (TK-10 renal) of 14 µM and a GI50 (CCRF-CEM leukemia) of 0.432 µM. For the same molecule, the GI50 (MOLT-4 leukemia) was 1.25 µM, the TGI (MOLT-4 leukemia) was over 21.9 µM and the GI50 (SNB-19 CNS) was 15.5 µM. For the same molecule, the TGI (SNB-19 CNS) was 31.8 µM, the GI50 (OVCAR-3 ovarian) was 1.79 µM and the TGI (OVCAR-3 ovarian) was 3.29 µM. It also gave a GI50 (SK-MEL-2 melanoma) of 12.8 µM, a TGI (SK-MEL-2 melanoma) of 26 µM and a GI50 (NCI-H460 lung) of 8.34 µM. For the same molecule, the TGI (NCI-H460 lung) was 26.2 µM, the GI50 (A549 NSCLC) was 5.63 µM and the TGI (A549 NSCLC) was 24.8 µM. The GI50 (UO-31 renal) was 2.66 µM, the TGI (UO-31 renal) was 11.9 µM and the GI50 (MCF7 breast) was 1.92 µM. For the same molecule, the TGI (MCF7 breast) was 5.65 µM, the GI50 (HOP-62 NSCLC) was 11.7 µM and the TGI (HOP-62 NSCLC) was 25.8 µM. For the same molecule, the GI50 (EKVX NSCLC) was 6.06 µM, the TGI (EKVX NSCLC) was 21.2 µM and the GI50 (SR leukemia) was 1.89 µM. For the same molecule, the GI50 (UACC-257 melanoma) was 11.6 µM, the TGI (UACC-257 melanoma) was 24.6 µM and the GI50 (SN12C renal) was 6.26 µM. For the same molecule, the TGI (SN12C renal) was 18.8 µM, the GI50 (HOP-92 NSCLC) was 2.6 µM and the TGI (HOP-92 NSCLC) was 13.6 µM. The GI50 (OVCAR-8 ovarian) was 12.4 µM, the TGI (OVCAR-8 ovarian) was 26.1 µM and the GI50 (IGROV1 ovarian) was 1.74 µM. For the same molecule, the TGI (IGROV1 ovarian) was 3.45 µM, the GI50 (NCI/ADR-RES ovarian) was 22.4 µM and the TGI (NCI/ADR-RES ovarian) was 48.8 µM. It also gave a GI50 (PC-3 prostate) of 3.52 µM, a TGI (PC-3 prostate) of 13.5 µM and a GI50 (MDA-MB-435) of 3.42 µM. For the same molecule, the TGI (MDA-MB-435) was 13.4 µM, the GI50 (OVCAR-4 ovarian) was 4.59 µM and the TGI (OVCAR-4 ovarian) was 15.1 µM. For the same molecule, the GI50 (A498 renal) was 10.9 µM, the TGI (A498 renal) was 24.3 µM and the GI50 (BT-549 breast) was 12.2 µM. The TGI (BT-549 breast) was 25.6 µM, the GI50 (MALME-3M melanoma) was 2.72 µM and the TGI (MALME-3M melanoma) was 6.63 µM. The GI50 (RPMI-8226 leukemia) was 2.02 µM, the TGI (RPMI-8226 leukemia) was over 20.4 µM and the GI50 (CAKI-1 renal) was 2.56 µM. It also gave a TGI (CAKI-1 renal) of 6.85 µM, a GI50 (KM12 colon) of 12.1 µM and a TGI (KM12 colon) of 27.8 µM. It also gave a GI50 (HCT-15 colon) of 2.45 µM, a TGI (HCT-15 colon) of 7.3 µM and a GI50 (SK-MEL-28 melanoma) of 2.03 µM. For the same molecule, the TGI (SK-MEL-28 melanoma) was 3.8 µM, the GI50 (HS 578T breast) was 7.12 µM and the TGI (HS 578T breast) was 23.6 µM. The GI50 (HT29 colon) was 3.32 µM, the TGI (HT29 colon) was 15.8 µM and the GI50 (SF-268 CNS) was 3.22 µM. For the same molecule, the TGI (SF-268 CNS) was 10.2 µM, the GI50 (LOX IMVI melanoma) was 2.79 µM and the TGI (LOX IMVI melanoma) was 8.26 µM. The GI50 (T-47D breast) was 2.03 µM, the TGI (T-47D breast) was 5.91 µM and the GI50 (U251 CNS) was 12.5 µM. For the same molecule, the TGI (U251 CNS) was 25 µM, the GI50 (NCI-H23 lung) was 8.28 µM and the TGI (NCI-H23 lung) was 27.8 µM. For the same molecule, the GI50 (HL-60(TB) leukemia) was 1.52 µM, the TGI (HL-60(TB) leukemia) was over 51.5 µM and the GI50 (SK-MEL-5 melanoma) was 2.76 µM. It also gave a TGI (SK-MEL-5 melanoma) of 9.15 µM.
